Measured values as given in US20230279246A1, “MOLECULE-CONTAINING SURFACES AND METHODS OF PREPARATION THEREOF” (University of Durham, priority 2020, published 2023).

Test system: Gram-negative Escherichia coli BW25113
Experiment: Antibacterial testing of coated substrates, CFU plate counting
Conditions: relative to untreated substrate; for Bacteria Loss/Log10 Reduction E. coli (Gram-negative): coated PET film, 4 h at 30 °C, mean ± standard deviation; for Log10 Reduction E. coli: plasma poly(4-vinylaniline) series, title: polypropylene film, text: PET substrates, average ± standard deviation
Method: The prepared substrates with their respective coatings were subsequently tested for their antibacterial qualities against representative species of Gram-negative and Gram-positive bacteria. Gram-negative Escherichia coli BW25113 (CGSC 7636; rrnB3 ΔlacZ4787 hsdR514 Δ(araBAD)567 Δ(rhaBAD)568 rph-1) and Gram-positive Staphylococcus aureus (FDA209P, an MSSA strain; ATCC 6538P) bacteria cultures were prepared using autoclaved (Autoclave Vario 1528, Dixons Ltd.) Luria-Bertani broth media (LB; L3022, Sigma-Aldrich Ltd., 2% w/v in Milli-Q® grade water). A 5 ml bacterial culture was grown from a single colony for 16 h at 37° C., and then 50 μL used to inoculate a sterile polystyrene cuvette (Catalogue No. 67.742, Sarstedt AG) containing 1 mL of LB Broth. The cuvette was covered with Parafilm (Cole-Parmer Ltd.) and then placed inside a shaking incubator (model Stuart Orbital Incubator S1500, Cole-Parmer Ltd.) set at 37° C. and 120 rpm. An optical density OD600nm=0.4 was verified using a UV-Vis spectrophotometer (model Jenway 6300, Cole-Parmer Ltd.) to obtain bacteria at the mid-log phase of growth.
Uncoated control samples were washed in absolute ethanol for 15 minutes and then dried under vacuum in order to make sure they were sterile and clean. Sterile microtubes (1.5 mL, Sarstedt AG) were loaded with the untreated, or coated substrates. Next, 100 μL of the prepared bacterial culture was placed onto each substrate (so that the microorganisms could interact with one side of the surface), and left to incubate (model Bacterial Incubator 250, LMS Ltd.) for 4 hours at 30° C. Next, 900 μL of autoclaved Luria-Bertani broth media was pipetted into each microtube and vortexed (model Vortex-Genie 2, Scientific Industries Inc.) in order to recover the bacteria as a 10-fold dilution (10^−1). Further ten-fold serial dilutions were undertaken to provide 10^−2, 10^−3, 10^−4, 10^−5 and 10^−6 samples. Colony-forming unit (CFU) plate counting was performed by placing 10 μL drops from each diluted sample onto autoclaved Luria-Bertani Agar solid plates (EZMix™ powder, dust free, fast dissolving fermentation medium, L7533, Sigma-Aldrich Ltd.) and incubated (model Bacterial Incubator 250, LMS Ltd.) for 16 hours at 30° C. The number of colonies visible at each dilution were then counted. All tests were performed in triplicate.
Gram-negative Escherichia coli BW25113 (CGSC 7636; rrnB3 ΔlacZ4787 hsdR514 Δ(araBAD)567 Δ(rhaBAD)568 rph-1) and Gram-positive Staphylococcus aureus (FDA209P, an MSSA strain; ATCC 6538P) bacteria cultures were prepared using autoclaved (Autoclave Vario 1528, Dixons Ltd.) Luria-Bertani broth media (LB; L3022, Sigma-Aldrich Ltd., 2% w/v in grade water). A 5 ml bacterial culture was grown from a single colony for 16 h at 37° C., and then 50 μL used to inoculate a sterile polystyrene cuvette (Part No. 67.742, Sarstedt AG) containing 1 mL of LB Broth. The cuvette was covered with Parafilm (Cole-Parmer Ltd.) and then placed inside a shaking incubator (model Stuart Orbital Incubator S1500, Cole-Parmer Ltd.) set at 37° C. and 120 rpm to allow the bacteria to grow until an optical density OD600nm=0.4 was measured using a UV-Vis spectrophotometer (model Jenway 6300, Cole-Parmer Ltd.) which corresponded to the mid-log phase growth of bacteria.
Antibacterial testing was performed within 24 h of fabricating the coatings. Uncoated control samples were cleaned and sterilized by washing in absolute ethanol for 15 min and drying under vacuum. Each uncoated or coated substrate piece was placed aseptically inside a sterile microtube (1.5 mL, Sarstedt AG) so that the microorganisms could interact with one side of the surface. Next, 100 μL of the prepared bacterial culture was pipetted onto each substrate. In practice, the porous substrates absorbed the liquid so that the entire 15 mm×15 mm area of the samples was permeated by the bacterial suspension.

| SMILES | Bacteria Loss/Log10 Reduction E. coli (Gram-negative) [Log10 Reduction] | Bacteria Loss/Log10 Reduction E. coli (Gram-negative) (listed as cinnamaldehyde) | Log10 Reduction E. coli (listed as Cinnamaldehyde-only) [Log10 Reduction] | Log10 Reduction E. coli (listed as cinnamaldehyde-only) | Bacteria Loss/Log10 Reduction E. coli (Gram-negative) (listed as Tannic acid-only) |
| --- | --- | --- | --- | --- | --- |
| O=C/C=C/c1ccccc1 [Cinnamaldehyde, trans-cinnamaldehyde] | 0.12 ± 0.07 | very small antibacterial effect | 0.12 ± 0.07 | very small effect |  |
| O=C(OC[C@H]1O[C@@H](OC(=O)c2cc(O)c(O)c(OC(=O)c3cc(O)c(O)c(O)c3)c2)[C@H](OC(=O)c2cc(O)c(O)c(OC(=O)c3cc(O)c(O)c(O)c3)c2)[C@@H](OC(=O)c2cc(O)c(O)c(OC(=O)c3cc(O)c(O)c(O)c3)c2)[C@@H]1OC(=O)c1cc(O)c(O)c(OC(=O)c2cc(O)c(O)c(O)c2)c1)c1cc(O)c(O)c(OC(=O)c2cc(O)c(O)c(O)c2)c1 [Tannic Acid, tannic acid] | 0.00 |  |  |  | no antibacterial activity |
